By IC50 is commonly meant the point on the concentration scale where inhibition reaches its midpoint. The low end stands for higher potency, the high end for lower potency.

These results are taken from patent publication US12522587B2, “Cancer treatments targeting cancer stem cells” (Remedy Plan, Inc., priority 2018, dated 2026).

The test system of one assay is MV-4-11 cells. Briefly: Cell viability in MV-4-11 cells (CellTiter Glo2, 4 days). Format: cell-based. The settings on record: Homo sapiens, MV4-11, 96 h. How it is done: Approximately 10,000 MV-4-11 cells per well of a 96-well plate were treated with DMSO (no drug control) or each compound in Table 6 in an 8-point dose response for 4 days. Cell viability was measured using CellTiter Glo2. The IC50 of each compound was determined using CDD Vault.
In general terms: In ATP-based viability assays light output follows the ATP content of the culture.

A further assay relates to RS4;11 cells. The assay is described as follows: Cell viability in RS4;11 cells (CellTiter Glo2, 4 days). It counts as cell-based. The note with it: Homo sapiens, 96 h. How it is done: Approximately 10,000 RS4;11 cells per well of a 96-well plate were treated with DMSO (no drug control) or each compound in Table 6 in an 8-point dose response for 4 days. Cell viability was measured using CellTiter Glo2. The IC50 of each compound was determined using CDD Vault.

A further assay deals with AGS cells. Briefly: Cell viability in AGS cells (CellTiter Glo2, 8-point dose response, 4 days). Format: cell-based, human. Here is the method: AGS cells were treated with DMSO (no drug control) or each compound in Table 5 in an 8-point dose response for 4 days. Cell viability was measured using CellTiter Glo2. The IC50 of each compound was determined using CDD Vault.

Like-named read-outs stand apart in the source and are kept apart here.

In the case of `CCC(=O)N(C)c1ccc(-c2ccc(C(=O)NCc3cccnc3)cc2)cc1` [Compound I-45, 4′-(N-methylpropionamido)-N-(pyridin-3-ylmethyl)-[1,1′-biphenyl]-4-carboxamide], the IC50 in the assay on MV-4-11 cells amounted to 0.218 µM; in the assay with RS4;11 cells, 0.689 µM; in the assay on AGS cells it was 4.29 µM; in the assay on AGS cells (Homo sapiens, AGS, 96 h), 4.45 µM.
As to `CCOC(=O)N(C)c1ccc(-c2ccc(C(=O)NCc3cccnc3)cc2)cc1` [Compound I-231, ethyl methyl(4′-((pyridin-3-ylmethyl)carbamoyl)-[1,1′-biphenyl]-4-yl)carbamate], the IC50 was found to be 0.741 µM with MV-4-11 cells; 2.92 µM with RS4;11 cells; 3.41 µM in the assay on AGS cells (Homo sapiens, AGS, 96 h).
The corresponding values for `CCC(=O)N(C)c1ccc(-c2nc(C(=O)NCc3cccnc3)cs2)cc1` [Compound I-241, 2-(4-(N-methylpropionamido)phenyl)-N-(pyridin-3-ylmethyl)thiazole-4-carboxamide] are 3.92 µM, 10.5 µM and > 30 µM.
On to `CCC(=O)N1CCc2c1ccc(-c1ccc(C(=O)NCc3cccnc3)cc1)c2C` [Compound I-80, 4-(4-methyl-1-propionylindolin-5-yl)-N-(pyridin-3-ylmethyl)benzamide], for which the IC50 in the assay on MV-4-11 cells amounted to 0.565 µM; with RS4;11 cells it was 0.886 µM; with AGS cells, 0.653 µM; in the assay on AGS cells (Homo sapiens, AGS, 96 h), 0.49 µM.
As for `CCC(=O)N(C)c1ccc(-c2ccc(C(=O)NCc3cccnc3)cc2)c(Cl)c1` [Compound I-224, 2′-chloro-4′-(N-methylpropionamido)-N-(pyridin-3-ylmethyl)-[1,1′-biphenyl]-4-carboxamide], the half-maximal inhibitory concentration (IC50) with MV-4-11 cells amounted to 1.1 µM; in the assay on RS4;11 cells, 5.32 µM; in the assay on AGS cells (Homo sapiens, AGS, 96 h) it was 1.48 µM.
The corresponding values for `CCC(=O)N(C)c1ccc(-c2ccc(C(=O)NCc3cccnc3)cn2)cc1C` [Compound I-232, 6-(3-methyl-4-(N-methylpropionamido)phenyl)-N-(pyridin-3-ylmethyl)nicotinamide] are 1.22 µM, 0.231 µM and 1.28 µM.
As to `CCC(=O)N1CCc2cc(-c3ccc(C(=O)NCc4cccnc4)c(F)c3)ccc21` [Compound I-98, 2-fluoro-4-(1-propionylindolin-5-yl)-N-(pyridin-3-ylmethyl) benzamide], the IC50 in the assay on MV-4-11 cells was 0.845 µM; in the assay with RS4;11 cells it was > 30 µM.
As for `CCC(=O)N1CCc2cc(-c3ccc(C(=O)NCc4cccnc4)cn3)ccc21` [Compound I-54, 6-(1-propionylindolin-5-yl)-N-(pyridin-3-ylmethyl)nicotinamide], the 50% inhibitory concentration (IC50) with MV-4-11 cells is 10.4 µM; in the assay on RS4;11 cells, 4.92 µM; with AGS cells, > 16.9 µM; with AGS cells (Homo sapiens, AGS, 96 h), > 17 µM.
As to `CCC(=O)N1CCc2cc(-c3ccc(C(=O)NCc4cccnc4)cc3)ccc21` [Compound I-43, 4-(1-propionylindolin-5-yl)-N-(pyridin-3-ylmethyl) benzamide], the IC50 in the assay with MV-4-11 cells was 2.93 µM; in the assay on RS4;11 cells it was 0.606 µM; with AGS cells, 2.36 µM; in the assay with AGS cells (Homo sapiens, AGS, 96 h), 2.48 µM.
Regarding `CCC(=O)N1CCc2cc(-c3ccc(C(=O)NCC4CCCNC4)cc3)ccc21` (stereo not shown) [Compound I-63, N-(piperidin-3-ylmethyl)-4-(1-propionylindolin-5-yl)benzamide], in the assay on AGS cells (Homo sapiens, AGS, 96 h), the IC50 is > 30 µM.
On the same count and under the same terms, the figure for `CCC(=O)N(C)c1ccc(-c2ccc(C(=O)NCc3cccnc3)cc2)cc1C` [Compound I-215, 3′-methyl-4′-(N-methylpropionamido)-N-(pyridin-3-ylmethyl)-[1,1′-biphenyl]-4-carboxamide] is 1.82 µM.
For `CCC(=O)N1CCc2cc(-c3ccc(C(=O)NCc4cccnc4)cc3)cc(C)c21` [Compound I-17, 4-(7-methyl-1-propionylindolin-5-yl)-N-(pyridin-3-ylmethyl)benzamide], the IC50 with MV-4-11 cells stood at 0.67 µM; in the assay on RS4;11 cells, 0.27 µM; with AGS cells, 1.02 µM; in the assay on AGS cells (Homo sapiens, AGS, 96 h), 1.05 µM.
For the compound `CCC(=O)N1CCc2cc(-c3ccc(C(=O)NCc4cccnc4)c(OC)c3)ccc21` [Compound I-96, 2-methoxy-4-(1-propionylindolin-5-yl)-N-(pyridin-3-ylmethyl)benzamide], the IC50 in the assay on AGS cells (Homo sapiens, AGS, 96 h) was > 30 µM.
The same measure, in the same setting: the figure for `CCC(=O)n1ncc2cc(-c3ccc(C(=O)NCc4cccnc4)cc3)ccc21` [Compound I-56, 4-(1-propionyl-1H-indazol-5-yl)-N-(pyridin-3-ylmethyl)benzamide] is 7.68 µM.
`CCC(=O)N1CCc2cc(-c3ccc(C(=O)NCc4cccnc4)cc3OC)ccc21` [Compound I-94, 3-methoxy-4-(1-propionylindolin-5-yl)-N-(pyridin-3-ylmethyl)benzamide]: the IC50 worked out at 8.71 µM with AGS cells and 7.86 µM in the assay on AGS cells (Homo sapiens, AGS, 96 h).
Take `COCCN1CCc2cc(-c3ccc(C(=O)NCc4cccnc4)cc3)ccc21` [Compound I-53, 4-(1-(2-methoxyethyl)indolin-5-yl)-N-(pyridin-3-ylmethyl)benzamide]: the IC50 in the assay on AGS cells (Homo sapiens, AGS, 96 h) came to 3.52 µM.
As for `CCC(=O)N1CCc2cc(-c3ncc(C(=O)NCc4cccnc4)cn3)ccc21` [Compound I-66, 2-(1-propionylindolin-5-yl)-N-(pyridin-3-ylmethyl) pyrimidine-5-carboxamide], in the assay with AGS cells (Homo sapiens, AGS, 96 h), the IC50 is > 30 µM.
On the same count and under the same terms, the result for `CCC(=O)N1CCc2cc(-c3ccc(C(=O)NCC4CCCC4)cc3)ccc21` [Compound I-207] reads > 100 µM.
Same read-out and setting: the result for `CCC(=O)N1CCc2cc(N3CCN(C(=O)NCc4cccnc4)CC3)ccc21` [Compound I-223] reads 4.54 µM.
On the same count and under the same terms, the figure for `CCC(=O)N1CCc2cc(-c3ccc(C(=O)NCc4cccc(Cl)c4)cc3)ccc21` [Compound I-168] is > 30 µM; for `CCN(C)C(=O)c1ccc(-c2ccc(C(=O)NCc3cccnc3)cc2)cc1` [Compound I-251] it is 1.65 µM; for `CCC(=O)N(C)c1ccc(-c2ccc(C(=O)NCc3cccnc3)cc2)cc1OC` [Compound I-248, 3′-methoxy-4′-(N-methylpropionamido)-N-(pyridin-3-ylmethyl)-[1,1′-biphenyl]-4-carboxamide] it is 3.59 µM.
In the assay on AGS cells (Homo sapiens, AGS, 96 h), `CCC(=O)N1CCc2cc(-c3ccc(S(=O)(=O)NCc4cccnc4)cc3)ccc21` [Compound I-48, 4-(1-propionylindolin-5-yl)-N-(pyridin-3-ylmethyl)benzenesulfonamide] had a 50% inhibitory concentration (IC50) of 9.45 µM. Compared with the last compound, the IC50 is about 2.6-fold higher.
Regarding `CCC(=O)N1CCc2cc(-c3ccc(C(=O)NCC4CCCCC4)cc3)ccc21` [Compound I-186, N-(cyclohexylmethyl)-4-(1-propionylindolin-5-yl)benzamide], the IC50 in the assay on AGS cells (Homo sapiens, AGS, 96 h) was > 30 µM.
On the same count and under the same terms, the result for `CC(=O)N1CCc2cc(-c3ccc(C(=O)NCc4cccnc4)cc3)ccc21` [Compound I-42, 4-(1-acetylindolin-5-yl)-N-(pyridin-3-ylmethyl) benzamide] reads 3.83 µM.
On to `CCC(=O)N1CCc2cc(-c3ccc(C(=O)NCc4ccc(C)cc4)cc3)ccc21` [Compound I-157], for which, in the assay with AGS cells (Homo sapiens, AGS, 96 h), the IC50 was > 30 µM.
Consider `CC(=O)N(C)c1ccc(-c2ccc(C(=O)NCc3cccnc3)nc2)cc1` [Compound I-202, 5-(4-(N-methylacetamido)phenyl)-N-(pyridin-3-ylmethyl)picolinamide], for which the IC50 in the assay with MV-4-11 cells stood at 1.47 µM; in the assay on RS4;11 cells it was 2.55 µM; with AGS cells, 17.5 µM; in the assay on AGS cells (Homo sapiens, AGS, 96 h), 10.3 µM.
As for `CCC(=O)N(C)c1ccc(-c2ccc(C(=O)NCc3cccnc3)cc2)cc1Cl` [Compound I-225, 3′-chloro-4′-(N-methylpropionamido)-N-(pyridin-3-ylmethyl)-[1,1′-biphenyl]-4-carboxamide], the IC50 with MV-4-11 cells was found to be 0.613 µM; with RS4;11 cells, 0.237 µM; with AGS cells (Homo sapiens, AGS, 96 h), 1.09 µM.
The corresponding values for `CCC(=O)N(C)Cc1ccc(-c2ccc(C(=O)NCc3cccnc3)cc2)cc1` [Compound I-228, 4′-((N-methylpropionamido)methyl)-N-(pyridin-3-ylmethyl)-[1,1′-biphenyl]-4-carboxamide] are 0.765 µM, 1.93 µM and 3.81 µM.
